Article PMC7413516, “Antidepressant-like activity and safety profile evaluation of 1H-imidazo[2,1-f]purine-2,4(3H,8H)-dione derivatives as 5-HT1A receptor partial agonists” (PLoS ONE, 2020)
Values joined by “and” are separate entries in the source; they are usually repeats but may differ in a detail not shown here. Equal values may be shown once. “Also recorded” adds a separate entry of the source.

How the values were obtained:
normotensive rats = assay: Blood pressure measurement in normotensive anesthetized rats; assay type: in vivo, Wistar rats; details: for DBP Mean / SBP Mean / DBP (individual animals) / SBP (individual animals): 10 mg/kg i.p.
Description: Male Wistar normotensive rats were anesthetized with thiopental (50–75 mg/kg, i.p.). The right carotid artery was cannulated with a polyethylene tube filled with heparin in saline to facilitate pressure measurement using the Datamax apparatus (Columbus Instruments, Columbus, Ohio, USA). The studied compounds were administered after a 15-min stabilization period.

[1] = Liver, kidney and heart weight after repeated administration; assay type: in vivo, Swiss albino mice; details: mice, AZ-853 0.625 mg/kg, AZ-861 1.25 mg/kg
Description: (§1) The Swiss albino mice were used in the experiment. AZ-853 and AZ-861 were injected once daily for 16 consecutive days. On the 1st and 15th day the administration of the compounds, 18-h spontaneous animal activity was registered (see below). FST, as described earlier, was performed on the 14th day just before the next treatment. To ensure that the effects observed in FST are not the result of increased motility of animals, on the 13th day, just before the next administration, the locomotor activity was measured as described earlier, from 2 to 6 min after test start, i.e. in the period identical to the duration of FST. Blood and organ collection was performed on the 17th day at 24 h after the last dose and fasting.
The body weight was measured daily immediately prior to administration of the drugs. On the 17th day, the blood was collected from the Swiss albino mice sacrificed by decapitation 20 min after i.p. administration of heparin (2500 units/mouse) and then centrifuged at 600 × g (15 min, 4°C) to separate plasma. The liver, heart, and kidney were also collected and weighed.

[2] = Plasma ALAT and γ-GTP activity after repeated administration; assay type: in vivo, Swiss albino mice; details: mice, AZ-853 0.625, AZ-861 1.25 mg/kg b.w./day
Description: as §1
Blood samples were collected from the Swiss albino mice 24 h after the last administration of the tested compounds or vehicle. To determine glucose, cholesterol and triglyceride levels in the plasma, standard enzymatic spectrophotometric tests (Biomaxima S.A. Lublin, Poland) were used. In the presence of appropriate enzyme, the substrate was converted to a colored compound. Absorbance was measured at a wavelength of 500 nm. To determine alanine aminotransferase (ALAT) or γ-glutamyl transpeptidase (γ-GTP) activities in the plasma, the standard enzymatic spectrophotometric test (Biomaxima S.A.) was used. Absorbance was measured at 340 nm (ALAT) or 405 nm (γ-GTP).

mice = assay: Spontaneous activity monitoring (RFID TraffiCage, 18 h); assay type: in vivo, Swiss albino mice; details: for Mean counts, spontaneous activity: 0.625 mg/kg
Description: as §1
The spontaneous activity of the mice was measured on the 1st and 15th day of the treatment with a special, innovative radiofrequency identification system (RFID-system)—TraffiCage (TSE-Systems, Germany). The test was conducted according to the method described in the literature. The animals had the transmitter (RFID) subcutaneously implanted, which tracked the time they spent in different areas of the cage. The data obtained were then grouped in a special computer program.

[3] = molecular target: serotonergic 5-HT7 receptor (5-HT7R); design: method as in PMID 27353547; details: ref [8]; cited from earlier work
5-HT1AR = tested on: 5-HT1AR; design: method as in PMID 27353547; details: CHO-K1 cells, Ca2+ mobilisation; ref [8]; read-out: Kb, 5-HT1AR antagonist; cited from earlier work
[4] = time 0 min (baseline), 10 mg/kg
[5] = 18-h monitoring, AZ-853 0.625, AZ-861 1.25 mg/kg b.w./day

Cn1c(=O)c2c(nc3n(CCCCN4CCN(c5ccccc5F)CC4)ccn23)n(C)c1=O [AZ-853, 8-(4-(4-(2-fluorophenyl)piperazin-1-yl)butyl)-1,3-dimethyl-1H-imidazo[2,1-f]purine-2,4(3H,8H)-dione]
effect on systolic blood pressure (normotensive rats; 10 mg/kg): did not significantly affect the systolic blood pressure
reduction of diastolic blood pressure in relation to the baseline value (normotensive rats; 10 mg/kg): 13–15%
DBP Mean (normotensive rats; 5 min): 88.3 mmHg
SBP Mean (normotensive rats; 5 min): 131.2 mmHg
DBP (individual animals) (normotensive rats; 5 min, 10 mg/kg): 85 mmHg and 88 mmHg and 83 mmHg and 95 mmHg and 91 mmHg
SBP (individual animals) (normotensive rats; 5 min, 10 mg/kg): 143 mmHg and 116 mmHg and 120 mmHg and 123 mmHg and 163 mmHg and 122 mmHg
DBP Mean (normotensive rats; 10 min): 84.8 mmHg
SBP Mean (normotensive rats; 10 min): 130.0 mmHg
DBP (individual animals) (normotensive rats; 10 min, 10 mg/kg): 82 mmHg and 81 mmHg and 85 mmHg and 91 mmHg and 84 mmHg and 86 mmHg
SBP (individual animals) (normotensive rats; 10 min, 10 mg/kg): 144 mmHg and 112 mmHg and 127 mmHg and 119 mmHg and 162 mmHg and 116 mmHg
DBP Mean (normotensive rats; 15 min): 83.2 mmHg
SBP Mean (normotensive rats; 15 min): 128.5 mmHg
DBP (individual animals) (normotensive rats; 15 min, 10 mg/kg): 80 mmHg and 81 mmHg and 84 mmHg and 88 mmHg and 82 mmHg
SBP (individual animals) (normotensive rats; 15 min, 10 mg/kg): 140 mmHg and 113 mmHg and 130 mmHg and 116 mmHg and 160 mmHg and 112 mmHg
DBP Mean (normotensive rats; 20 min): 83.0 mmHg
SBP Mean (normotensive rats; 20 min): 125.5 mmHg
DBP (individual animals) (normotensive rats; 20 min, 10 mg/kg): 75 mmHg and 76 mmHg and 85 mmHg and 88 mmHg and 86 mmHg
SBP (individual animals) (normotensive rats; 20 min, 10 mg/kg): 132 mmHg and 110 mmHg and 128 mmHg and 113 mmHg and 161 mmHg
DBP Mean (normotensive rats; 30 min): 83.2 mmHg
SBP Mean (normotensive rats; 30 min): 122.8 mmHg
DBP (individual animals) (normotensive rats; 30 min, 10 mg/kg): 80 mmHg and 76 mmHg and 84 mmHg and 87 mmHg and 86 mmHg and 85 mmHg
SBP (individual animals) (normotensive rats; 30 min, 10 mg/kg): 136 mmHg and 109 mmHg and 126 mmHg and 110 mmHg and 160 mmHg and 112 mmHg
DBP Mean (normotensive rats; 40 min): 82.5 mmHg
SBP Mean (normotensive rats; 40 min): 126.2 mmHg
DBP (individual animals) (normotensive rats; 40 min, 10 mg/kg): 80 mmHg and 76 mmHg and 86 mmHg and 88 mmHg and 83 mmHg
SBP (individual animals) (normotensive rats; 40 min, 10 mg/kg): 138 mmHg and 110 mmHg and 125 mmHg and 111 mmHg and 159 mmHg
DBP Mean (normotensive rats; 50 min): 83.2 mmHg
SBP Mean (normotensive rats; 50 min): 125.7 mmHg
DBP (individual animals) (normotensive rats; 50 min, 10 mg/kg): 83 mmHg and 82 mmHg and 84 mmHg and 86 mmHg and 97 mmHg and 85 mmHg
SBP (individual animals) (normotensive rats; 50 min, 10 mg/kg): 139 mmHg and 113 mmHg and 119 mmHg and 167 mmHg and 111 mmHg
DBP Mean (normotensive rats; 60 min): 86.2 mmHg
SBP Mean (normotensive rats; 60 min): 127.0 mmHg
DBP (individual animals) (normotensive rats; 60 min, 10 mg/kg): 84 mmHg and 80 mmHg and 83 mmHg and 86 mmHg and 82 mmHg
SBP (individual animals) (normotensive rats; 60 min, 10 mg/kg): 136 mmHg and 111 mmHg and 116 mmHg and 110 mmHg and 157 mmHg and 107 mmHg
DBP Mean (normotensive rats; 70 min): 84.7 mmHg
SBP Mean (normotensive rats; 70 min): 125.3 mmHg
DBP (individual animals) (normotensive rats; 70 min, 10 mg/kg): 84 mmHg and 85 mmHg and 89 mmHg and 82 mmHg
SBP (individual animals) (normotensive rats; 70 min, 10 mg/kg): 138 mmHg and 116 mmHg and 120 mmHg and 111 mmHg and 160 mmHg and 107 mmHg
DBP Mean (normotensive rats; 80 min): 83.2 mmHg
SBP Mean (normotensive rats; 80 min): 123.2 mmHg
DBP (individual animals) (normotensive rats; 80 min, 10 mg/kg): 85 mmHg and 80 mmHg and 82 mmHg and 89 mmHg and 81 mmHg
SBP (individual animals) (normotensive rats; 80 min, 10 mg/kg): 137 mmHg and 112 mmHg and 115 mmHg and 108 mmHg and 160 mmHg and 107 mmHg
DBP Mean (normotensive rats; time 0 min (baseline)): 97.2 mmHg
SBP Mean (normotensive rats; time 0 min (baseline)): 131.0 mmHg
DBP (individual animals) (normotensive rats; [4]): 97 mmHg and 98 mmHg and 91 mmHg and 84 mmHg and 100 mmHg and 113 mmHg
SBP (individual animals) (normotensive rats; [4]): 129 mmHg and 140 mmHg and 120 mmHg and 119 mmHg and 122 mmHg and 156 mmHg
effect on liver, kidney and heart weight (% of total body weight) [1]: neither AZ-853 (0.625 mg/kg) nor AZ-861 (1.25 mg/kg) influenced
increase of plasma γ-GTP activity [2]: approximately 435%
plasma ALAT activity vs. control [2]: did not lead to significant changes in ALAT activity
spontaneous activity after the 1st administration vs. control (mice; [5]): increased spontaneous activity in the 1st, 7th, 12th and 13th hour
spontaneous activity after the 15th administration vs. control (mice; [5]): significant increase in activity was observed only in the 1st hour; also recorded: in the 4th, 7th and 9th hour after administration, a significant reduction in spontaneous activity
Mean counts, spontaneous activity (mice; after 1st administration, 1 h after administration): 422.3 counts
Mean counts, spontaneous activity (mice; after 1st administration, 2 h after administration): 229.6 counts
Mean counts, spontaneous activity (mice; after 1st administration, 3 h after administration): 213.6 counts
Mean counts, spontaneous activity (mice; after 1st administration, 4 h after administration): 200.4 counts
Mean counts, spontaneous activity (mice; after 1st administration, 5 h after administration): 179.9 counts
Mean counts, spontaneous activity (mice; after 1st administration, 6 h after administration): 236.7 counts
Mean counts, spontaneous activity (mice; after 1st administration, 7 h after administration): 254.4 counts
Mean counts, spontaneous activity (mice; after 1st administration, 8 h after administration): 265.9 counts
Mean counts, spontaneous activity (mice; after 1st administration, 9 h after administration): 189.1 counts
Mean counts, spontaneous activity (mice; after 1st administration, 10 h after administration): 250.4 counts
Mean counts, spontaneous activity (mice; after 1st administration, 11 h after administration): 226.9 counts
Mean counts, spontaneous activity (mice; after 1st administration, 12 h after administration): 397.9 counts
Mean counts, spontaneous activity (mice; after 1st administration, 13 h after administration): 346.3 counts
Mean counts, spontaneous activity (mice; after 1st administration, 14 h after administration): 365.0 counts
Mean counts, spontaneous activity (mice; after 1st administration, 15 h after administration): 380.1 counts
Mean counts, spontaneous activity (mice; after 1st administration, 16 h after administration): 407.7 counts
Mean counts, spontaneous activity (mice; after 1st administration, 17 h after administration): 351.3 counts
Mean counts, spontaneous activity (mice; after 1st administration, 18 h after administration): 351.3 counts
Mean counts, spontaneous activity (mice; after 15th administration, 1 h after administration): 324.3 counts
Mean counts, spontaneous activity (mice; after 15th administration, 2 h after administration): 152.7 counts
Mean counts, spontaneous activity (mice; after 15th administration, 3 h after administration): 148.6 counts
Mean counts, spontaneous activity (mice; after 15th administration, 4 h after administration): 120.0 counts
Mean counts, spontaneous activity (mice; after 15th administration, 5 h after administration): 166.6 counts
Mean counts, spontaneous activity (mice; after 15th administration, 6 h after administration): 110.9 counts
Mean counts, spontaneous activity (mice; after 15th administration, 7 h after administration): 134.7 counts
Mean counts, spontaneous activity (mice; after 15th administration, 8 h after administration): 144.6 counts
Mean counts, spontaneous activity (mice; after 15th administration, 9 h after administration): 138.1 counts
Mean counts, spontaneous activity (mice; after 15th administration, 10 h after administration): 272.4 counts
Mean counts, spontaneous activity (mice; after 15th administration, 11 h after administration): 256.9 counts
Mean counts, spontaneous activity (mice; after 15th administration, 12 h after administration): 347.2 counts
Mean counts, spontaneous activity (mice; after 15th administration, 13 h after administration): 396.8 counts
Mean counts, spontaneous activity (mice; after 15th administration, 14 h after administration): 307.7 counts
Mean counts, spontaneous activity (mice; after 15th administration, 15 h after administration): 281.8 counts
Mean counts, spontaneous activity (mice; after 15th administration, 16 h after administration): 249.2 counts
Mean counts, spontaneous activity (mice; after 15th administration, 17 h after administration): 304.0 counts
Mean counts, spontaneous activity (mice; after 15th administration, 18 h after administration): 356.3 counts
Ki [3]: 508 nM
Kb (5-HT1AR): 2.7 nM
